We go through 9 molecules from patent publication US20080132481A1, “INTERLEUKIN-4 GENE EXPRESSION INHIBITORS” (AVENTIS PHARMACEUTICALS INC., priority 2002, published 2008).

The structures appear in SMILES notation. Where a name gives a salt, the structure may show the parent alone. Starred links: 1 amine or outer side, 2 acyl side, 3 side chain; linkers in the order of their positions; H or OH if unused. Positions of bridges follow the written chain, without caps; N, C: chain ends. Non-standard residues stand in square brackets, D forms with d. Residues, ends and D or L forms follow the SMILES beside them. Chains are numbered I, II in the order given. Actinocin(9to1) = Cc1c2oc3c(C)ccc(C(=O)[*:1])c3nc-2c(C(=O)[*:2])c(N)c1=O; NMeV = CN[C@H](C(=O)O)C(C)C; Sar = CNCC(=O)O

For one series, the system named is IL-4. Put plainly: In vivo ovalbumin (OVA) mouse model, BALF IL-4. To be noted: i.n. The method, then:
(§1) This model is designed to determine the ability of a test article to modulate an antigen-induced pulmonary inflammatory cell accumulation in sensitized Balb/c mice from Charles River Laboratories. The mice are given a two week time period from arrival date prior to sensitizations.
(§2) On days 0, 7, 14, each animal is injected intraperitoneal (i.p.) with a 0.2 ml Ovalbumin Hydragel solution. Each animal receives 10 μg of Ovalbumin in 0.2 mL of Hydragel, aluminum hydroxide adsorptive gel containing 2% aluminum oxide. On Day 21, the animals are dosed with test compounds 30-60 minutes prior to 5% Ovalbumin aerosolized challenge. On day 22, BALF samples are collected from one group of animals and used for cytokine analysis. On day 24, BALF is obtained from a second group of animals and used for differential cell counts.
(§3) Test System: Female Babl/cJ mice (Jackson Laboratories), approximately 6-9 weeks old, each weighing approximately 20 to 25 grams, are divided into ten animals per group.
(§4) Sensitization Regimen: Mice are sensitized by an intraperitoneal injection of 10 μg ovalbumin (OVA) mixed in 4 mg aluminum hydroxide Al(OH)3 gel suspension in 0.2 ml sterile saline on Days 0, 7 and 14. This suspension is prepared one hour before intraperitoneal injection into each mouse. The animals are ready for OVA challenge on Day 21.
(§5) Antigen Challenge: Animals are exposed to aerosolized OVA on day 21 (5% w/v in sterile saline) for 20 minutes. The aerosol is generated by a PARI-Master nebulizer, the outlet of which is connected to a small Plexiglas® chamber containing the animals. Bronchoalveolar lavage is performed on Day 22.
(§6) Method of Study Performance: On day 24, 72 hours following aerosol OVA exposure, a separate group of animals are anesthetized with urethane (0.15-0.2 gm/kg) and the trachea is exposed and cannulated. Lungs are lavaged with 2×0.5 ml Hank's balanced salt solution without Ca^2+ and Mg^2+ (HBSS; Gibco, Grand Island, N.Y.) containing 0.1% EDTA. Lavage fluid is recovered after 30 sec by gentle aspiration and pooled for each animal. Samples are centrifuged at 2000 rpm for 15 minutes at 5° C. After centrifugation, individual supernatants are stored frozen at −80° C. The resulting pellet is resuspended in 0.5 ml of HBSS containing 0.1% EDTA. Total cells and eosinophils are determined using a Technicon Hl and cytoslides, respectively.
Administration of the Test/Control Article: The test article and vehicle dosing preparations are administered once to each anesthetized mouse intranasally using a 200 μl pipette at 30-60 minutes prior to OVA challenge. Each animal receives 50 μl (25 μl/nostril) at each time point. Method of Euthanasia: Urethane overdose at in-life completion.
Statistical Analysis: Total cell and eosinophil number from various treatment groups is compared using an ANOVA followed by a multiple comparison test.
Compounds administered 30 minutes before aerosol ovalbumin challenge in ova sensitized mice. BALF harvested 24 hours after aerosol challenge. N=6/group.
FIG. 1 summarizes results from one representative experiment (out of three) in which in addition to BALF cytokines, lung eosinophilia is also determined. Mice (12 animals per group) are sensitized with 0.2 ml of an AlOH3 hydrogel suspension (2% AlOH3) containing 50 μg/ml ovalbumin on days 0, 7 and 14. […] After the OVA challenge for 24 hours, the mice underwent bronchoalveolar lavage and IL-4 and IL-13 levels in the BALF are determined by ELISA. […]

For a further series, the system named is Swiss 3T3 fibroblasts. Nature of the series: In vitro cytotoxicity assay on contact inhibited 3T3 fibroblasts (MTS). It counts as cell-based. As to conditions: non-dividing 3T3 cells. The protocol:
Other toxicity assays may be used.
Any compound killing 3T3 fibroblast cells was omitted from further studies.
Contact inhibited Swiss 3T3 fibroblasts are purchased from ATCC.
All compound dilutions are assayed in triplicate. […] Cells are returned to the incubator for 2 days.
Media is added to blank wells for background calculations.
Note that starting concentration of CsA was 1 μM.

The test system of a further series is eosinophils. Put plainly: In vivo ovalbumin (OVA) mouse model, BALF eosinophils. To be noted: i.n., 30 mg/kg. The protocol:
as §1, §2, §3, §4, §5
as §6, with “respectively. […]” for “respectively.”
FIG. 1 summarizes results from one representative experiment (out of three) in which in addition to BALF cytokines, lung eosinophilia is also determined. […] After the OVA challenge for 24 hours, the mice underwent bronchoalveolar lavage and IL-4 and IL-13 levels in the BALF are determined by ELISA. […]

Take `O=C(O)c1[nH]c2ccccc2c1Nc1ccncc1` [28 (maleate salt), 3-(4-Pyridinylamino)-1H-indole-2-carboxylic acid]: in the series on IL-4 (12 mg/kg), the “IL-4% ctl At 24 hours” value is reported as 50 % ctl. As to `Cc1c2oc3c(C)ccc(C(=O)N[C@@H]4C(=O)N[C@H](C(C)C)C(=O)N5CCC[C@H]5C(=O)N(C)CC(=O)N(C)[C@@H](C(C)C)C(=O)O[C@@H]4C)c3nc-2c(C(=O)N[C@@H]2C(=O)N[C@H](C(C)C)C(=O)N3CCC[C@H]3C(=O)N(C)CC(=O)N(C)[C@@H](C(C)C)C(=O)O[C@@H]2C)c(N)c1=O` [Actinomycin D, reference compound] (I: T[dV]P[Sar][NMeV] / II: T[dV]P[Sar][NMeV]; ester I:1-I:C, II:1-II:C; linker I:N-II:N via Actinocin(9to1)), the “toxic effects on quiescent 3T3 cells (in words)” value in the series on Swiss 3T3 fibroblasts is “the only compound which effected the viability”. With `CCOC(=O)c1[nH]c2ccccc2c1Nc1ccncc1` [Example 11, 3-(4-pyridinylamino)-1H-indole-2-carboxylic acid, ethyl ester], the melting point lay within 248 to 250 °C. Take `CCOC(=O)c1[nH]c2cc(Cl)ccc2c1Nc1ccncc1` [Example 13, 6-chloro-3-(4-pyridinylamino)-1H-indole-2-carboxylic acid, ethyl ester]: the melting point is 258 to 261 °C (dec.). Still for that read-out and setting: then `CCOC(=O)c1[nH]c2cc(-c3ccccc3)ccc2c1Nc1ccncc1` [Example 18, 6-phenyl-3-(4-pyridinylamino)-1H-indole-2-carboxylic acid, ethyl ester], with 241 to 243 °C. As to `CCOC(=O)c1c(Nc2ccncc2)c2ccccc2n1C` [Example 24A (maleate salt), 1-Methyl-3-(4-pyridinylamino)-1H-indole-2-carboxylic ethyl ester], the “IL-4% ctl At 24 hours” value in the series on IL-4 (30 mg/kg) is listed as 3 % ctl. In addition, the “Eos % ctl At 72 hours” value in the series with eosinophils was 8 % ctl. For the molecule `O=C(O)c1[nH]c2ccccc2c1Nc1ccncc1` [Example 28-EF, 3-(4-Pyridinylamino)-1H-indole-2-carboxylic acid], the “IL-4% ctl At 24 hours” value with IL-4 (30 mg/kg) was determined as 27 % ctl. For the same molecule, the “Eos % ctl At 72 hours” value with eosinophils was found to be 42 % ctl. On to `O=C(O)c1[nH]c2ccccc2c1Nc1ccncc1` [Example 28-ZD, 3-(4-Pyridinylamino)-1H-indole-2-carboxylic acid], for which the “IL-4% ctl At 24 hours” value with IL-4 (30 mg/kg) was 49.6 % ctl. Also, in the series on eosinophils, the “Eos % ctl At 72 hours” value was determined as 37.4 % ctl. For `CCOC(=O)c1[nH]c2cc(Cl)cc(Cl)c2c1NS(=O)(=O)c1ccccc1` [Example 90, 3-((Phenylsulfonyl)amino)-4,6-dichloro-1H-indole-2-carboxylic acid ethyl ester], the “IL-4% ctl At 24 hours” value in the series on IL-4 (30 mg/kg) worked out at 37 % ctl. Also, the “Eos % ctl At 72 hours” value in the series on eosinophils was 71 % ctl.
